{"source": "patent US9983211B2", "about": "(priority 2007, dated 2018)", "conditions": "in vivo"}
{"molecule": "N#CC(O)c1ccccc1", "note": "(stereo not shown) [mandelonitrile]", "values": [{"measurement": "times less toxic than sodium cyanide", "result": "approximately 18 times"}]}
